These results are taken from patent US9084419B2, “Method for reducing temperature stress of plants” (SUMITOMO CHEMICAL COMPANY, LIMITED, priority 2009, dated 2015).

Experiment [1] has as its system wheat (cultivar: Apogee). The experiment in a line: Reduction of high temperature stress by wheat seed treatment (plant weight), Test Example 10. Particulars: seed coating 5 mg per 1 g of seeds; 36° C. (day)/32° C. (night) for 19 days; 36th day after seeding. It is filed as in vivo. The procedure: A Blank slurry solution containing 5% (V/V) color coat red (Becker Underwood, Inc.), 5% (V/V) CF-Clear (Becker Underwood, Inc.) and 0.4% Maxim XL (Syngenta) was prepared. The compound C (methyl 4-oxo-4-(2-phenylethyl)aminobutyrate) or the compound E (5-oxo-5-[2-(3-indolyl)ethyl]aminovaleric acid) was dissolved in the Blank slurry to obtain a slurry solution so as to control the amount of the compound to be 5 mg per 1 g of seeds. Using a 50-ml conical tube, seed coating was carried out by mixing 1.3 ml of the slurry solution with 50 g of wheat seeds (cultivar: Apogee) and the seeds were dried. As a control, seed coating was carried out using the Blank slurry solution in place of the slurry solution to obtain seeds for non-treated group. The coated seeds (5 seeds each) were sown in the growing soil (AISAI) in a plastic pot and then cultivated in a greenhouse (set at a temperature of 18° C. (day)/15° C. (night)) for 17 days. Before the stress test, thinning was carried out to control the number of seedlings to 3 per pot.
The above test plants on the 17th day after seeding were cultivated for 19 days in an artificial climate chamber under the conditions of a temperature of 36° C. (day)/32° C. (night), a humidity of 50% (day)/60% (night), an illuminance of 7,000 lx, and a day length of 12 hours. […]

Experiment [2] relates to roots. Particulars: known from JP 4,087,942, JP 2001-139405, Plant and Soil 255: 67-75 (2003); cited from earlier work.
Experiment [3] has as its system Tomato (cultivar: Micro-Tom). The experiment in a line: Reduction of high temperature stress by tomato soil irrigation treatment (fruit setting rate). Particulars: soil irrigation twice, 50 ml per seedling; 40° C. (day)/30° C. (night) for 7 days; 13 days after stress. It is filed as in vivo. The procedure:
Tomato seeds (cultivar: Micro-Tom) were sown in the growing soil (AISAI) in a plastic pot and then cultivated in a greenhouse (set at a temperature of 25° C.) for about 4 weeks. A soil irrigation treatment was carried out twice, using an aqueous solution of a sodium salt of the compound A in an amount of 50 ml per seedling, on the 15th day and the 22nd day after seeding. As a control, a soil irrigation treatment was carried out using distilled water in an amount of 50 ml per seedling to form a non-treated group. After the irrigation treatment, plants cultivated up to the period when a 1st flower cluster blooms (1 to 2 flowers bloom(s), on the 32nd day after seeding) were cultivated for 7 days under the conditions of a temperature of 40° C. (day)/30° C. (night), a humidity of 63% (day)/70% (night), an illuminance of 7,100 lx, and a day length of 16 hours in the stress exposed group, while plants were cultivated for 7 days in a greenhouse (set at a temperature of 25° C.) in the stress non-exposed group. After the stress test, the test plants were cultivated for 13 days in a greenhouse (set at a temperature of 25° C.), the number of flower setting and the number of fruit setting were counted to determine a fruit setting rate (%) (number of fruit setting/number of flower setting×100).

Experiment [4] has as its system wheat (cultivar: Apogee). The experiment in a line: Reduction of high temperature stress by wheat foliage spraying treatment (plant weight). It is filed as in vivo. Particulars: foliage spray, 0.5 mg in 50 ml; 45° C., 17 hours; 4 days after stress. The protocol: Wheat (cultivar: Apogee) seeds were sown in the growing soil (AISAI) in a plastic pot ([…]×58 mm in height) and then cultivated for one week under the conditions of a temperature of 20 to 25° C., a humidity of 50 to 75%, an illuminance of 5,300 lx, and a day length of 16 hours.
A flowable formulation of the compound A was obtained by adding about 120 mg of a mixture of white carbon and a polyoxyethylene alkyl ether sulfate ammonium salt (weight ratio of 1:1) and 300 μl of water to 0.5 mg of the compound A, followed by fine grinding using a wet grinding method. The obtained flowable formulation was diluted with 50 ml of water to obtain a spray liquid. After adding 0.2% RINO as a sticker to the spray liquid, a sufficient amount (45 ml per 6 pots) was sprayed using an automatic spraying machine. As a control, a flowable formulation not containing the compound A was prepared and then sprayed to the non-treated group. Under the conditions of a temperature of 20 to 25° C., a humidity of 50 to 75%, an illuminance of 5,300 lx, and a day length of 16 hours, cultivation was carried out for 2 days.
The above test plants having been subjected to the spraying treatment were put in an artificial climate chamber set to the following conditions, and a stress test was carried out.
Temperature: 45° C., 17 hours, Illuminance: 6,500 to 7,900 lx, and Humidity: 50%. […]

The subject of experiment [5] is Rice (cultivar: NIHOMBARE). The experiment in a line: Reduction of low temperature stress in hydroponics of rice. Particulars: hydroponic culture medium; stress exposed group, 2 to 4° C. for 3 to 7 days. The experiment is classed as in vivo. The procedure: Rice seeds (cultivar: NIHOMBARE) are immersed in distilled water containing 1,000 ppm of Benlate and then incubated at 30° C. for one day. The seeds are washed with distilled water, incubated in distilled water for one day and then subjected to a forced germination treatment. In the bottom of a 288-well plug tray, cotton wool is spread and then the seeds subjected to the forced germination treatment are sown. A hydroponic culture medium (8-fold diluted Kimura B hydroponic culture solution) is added thereto, followed by cultivation for 3 to 10 days under the conditions of a temperature of 28° C. (day)/23° C. (night), a humidity of 60%, an illuminance of 7,100 lx, and a day length of 12 hours. A DMSO solution having a concentration 1,000 times of each test concentration of any one of the compounds A to G is prepared and then diluted with a hydroponic culture medium. An aqueous solution (250,000 ppm) of a sodium salt of the compound A is diluted with the hydroponic culture medium to prepare a liquid having a test concentration. The above rice seedling is transferred to these hydroponic culture media containing the compound, and then cultivated for 7 to 10 days under the conditions of a temperature of 28° C. (day)/23° C. (night), a humidity of 60%, an illuminance of 7,100 lx, and a day length of 12 hours. Using a hydroponic culture medium containing 0.1% DMSO added therein as a control of any one of the compounds A to G and using a hydroponic culture medium as a control of the sodium salt of the compound A, the above rice seedlings are cultivated to form a non-treated group. The seedlings during the treatment with the present compound are cultivated for 3 to 7 days under the conditions of a temperature of 2 to 4° C., a humidity of 40 to 70%, an illuminance of 3,500 lx, and a day length of 12 hours in the stress exposed group, and under the conditions of a temperature of 25 to 30° C., a humidity of 50 to 75%, an illuminance of 4,500 lx, and a day length of 12 hours in the stress non-exposed group. After the stress test, the plant length and the weight of the above-ground part are examined. Using a pulse modulation chlorophyll fluorometer (MAXI-IMAGING-PAM, WALZ), the chlorophyll fluorescence (Fv/Fm) is measured.

In experiment [6] the test system is wheat (cultivar: Apogee). The experiment in a line: Reduction of high temperature stress by wheat seed treatment (plant weight), Test Example 2. The experiment is classed as in vivo. Particulars: 40° C. (day)/30° C. (night) for 14 days; for Fresh weight of the above-ground part: 32nd day after seeding. The procedure:
A Blank slurry solution containing 5% (V/V) color coat red (Becker Underwood, Inc.), 5% (V/V) CF-Clear (Becker Underwood, Inc.) and 0.4% Maxim XL (Syngenta) was prepared. A sodium salt of the compound A was dissolved in the Blank slurry to obtain a slurry solution so as to control the amount of the sodium salt within a range from 0.5 mg to 2 mg per 1 g of seeds. Using a seed treating machine (HEGE11, manufactured by Hans-Ulrich Hege), seed coating was carried out by mixing 1.3 ml of the slurry solution with 50 g of wheat seeds (cultivar: Apogee) and the seeds were dried. As a control, seed coating was carried out using the Blank slurry solution in place of the slurry solution to obtain seeds for non-treated group. The coated seeds (5 seeds each) were sown in the growing soil (AISAI) in a plastic pot and then cultivated for 18 days under the conditions of a temperature of 20 to 25° C., a humidity of 50 to 75%, an illuminance of 5,300 lx, and a day length of 16 hours. Before the stress test, thinning was carried out to control the number of seedlings to 3 per pot. The above test plants on the 18th day after seeding were cultivated for 14 days under the conditions of a temperature of 40° C. (day)/30° C. (night), a humidity of 63% (day)/70% (night), an illuminance of 7,100 lx, and a day length of 16 hours. After the stress test, on the 32nd day after seeding, fresh weight of the above-ground part of test plants was examined for 4 to 7 pots.

As for `O=C(O)CCCC(=O)NCCc1c[nH]c2ccccc12` [compound E, 5-oxo-5-[2-(3-indolyl)ethyl]aminovaleric acid], the “fresh weight of the above-ground part vs non-treated group” value (“fresh weight … vs non-treated group” for short) in experiment [1] was “increased”.

On to `O=C(O)CCC(=O)NCCc1ccccc1` [compound A, 4-oxo-4-(2-phenylethyl)aminobutyric acid], for which the “activity to promote growth of roots” value in experiment [2] was “have activity to promote growth of roots”. For the same compound, the “fruit setting rate vs non-treated group” value in experiment [3] is on record as “a decrease in fruit setting rate was remarkably alleviated”. Moreover, in experiment [4], the “fresh weight … vs non-treated group” value was “increased”; the “visual evaluation of high temperature stress-induced withering and dying vs non-treated group” value is “alleviation of high temperature stress-induced withering and dying was observed”.

`COC(=O)CCC(=O)NCCCCc1ccccc1` [compound B, methyl 4-oxo-4-(4-phenylbutyl)aminobutyrate]: in experiment [5], the “chlorophyll fluorescence (Fv/Fm) vs non-treated group” value was “increase”, the “plant length vs non-treated group” value was “increase” and the “weight of the above-ground part vs non-treated group” value is given as “increase”.

For the compound `O=C([O-])CCC(=O)NCCc1ccccc1.[Na+]` [Compound A, Na salt], in experiment [5], the “chlorophyll fluorescence (Fv/Fm) vs non-treated group” value was “increase”, the “plant length vs non-treated group” value is on record as “increase” and the “weight of the above-ground part vs non-treated group” value is recorded as “increase”. For the same compound, in experiment [6] (seed coating 0.5 mg/g of seeds), the “Percentage relative to non-treated group (fresh weight of the above-ground part)” value (from here on “Percentage relative to non-treated group”) is recorded as 150% and the Fresh weight of the above-ground part was 0.87 g/3 seedlings. Moreover, in experiment [6] (seed coating 1.0 mg/g of seeds), the “Percentage relative to non-treated group” value is given as 140% and the Fresh weight of the above-ground part is 0.77 g/3 seedlings. Moreover, in experiment [6] (seed coating 2.0 mg/g of seeds), the “Percentage relative to non-treated group” value worked out at 140% and the Fresh weight of the above-ground part was 0.81 g/3 seedlings.

`COC(=O)CCC(=O)NCCc1ccccc1` [compound C, methyl 4-oxo-4-(2-phenylethyl)aminobutyrate]: the “fresh weight … vs non-treated group” value in experiment [1] was “increased”.
